Patent publication US20230404985A1, “METHODS OF TREATING TUMORS AND CANCERS HAVING DYSREGULATED WNT SIGNALING PATHWAYS” (ICAHN SCHOOL OF MEDICINE AT MOUNT SINAI, priority 2020, published 2023)

Columns and labels:
[1] = system: KIT and its downstream effector the prenyl-binding protein PDE6D; assay: NanoBRET live cell target engagement, KIT and PDE6D; type: cell-based
pT367 EZH2 and pT71 ATF2 = conditions: MYC-CTNNB1 organoids; WNTinib 1 μM, sorafenib 10 μM, SB202190 10 μM; 48 hours time course
Experimental: Tumor organoids were grown in 24 well plates and were collected in Cell Recovery Solution (Corning) after drug treatment. Tumor organoids were left to rotate at 4° C. for one hour in order to dissolve the Matrigel. Tumor organoids were spun down at 300 g at 4° C. for 5 minutes. Pellets were lysed in 2× Laemmli buffer (+4% 2-mercaptoethanol) by heating at 95° C. for 10 minutes followed by 5 seconds of sonication. SDS-PAGE was run using standard procedures.

[2] = system: MYC-Tp53 tumor organoid allografts; assay: MYC-Tp53 tumor organoid allografts; type: in vivo, C57BL/6J mice; conditions: 30 mg/kg daily oral gavage
Experimental: 300,000 cells per allograft were prepared in 8 mg/mL Matrigel. 6-8-week-old C57BL/6J mice were shaved the day prior to injection. A 26^5/8-gauge needle was used to implant organoids into the flank in 100 μL Matrigel. Tumor allografts were measured daily with calipers, and upon an average volumetric measurement of 100 mm^3, animals were randomized and drug dosing was started. Drugs were dosed daily at 30 mg/kg via oral gavage. Tumor allografts were also measured daily.
MYC-CTNNB1 tumor organoids were engrafted into C57BL/6 mice and treatment was started when tumor volume reached 100 mm^3.

CNC(=O)c1cc(Oc2ccc(NC(=O)Nc3ccc(C(F)(C(F)(F)F)C(F)(F)F)cc3)c(F)c2)ccn1 [8-50-2, 4-(3-fluoro-4-(3-(4-(perfluoropropan-2-yl)phenyl)ureido)phenoxy)-N-methylpicolinamide]
binding on KIT and PDE6D, comparison of WNTinib with 8-50-2 [1]: significant differences in binding

Oc1ccc(-c2nc(-c3ccncc3)c(-c3ccc(F)cc3)[nH]2)cc1 [SB202190]
temporal inhibition of pT367 EZH2 and pT71 ATF2 (pT367 EZH2 and pT71 ATF2): transient inhibition

COc1cc2nccc(Oc3ccc(NC(=O)NC4CC4)c(Cl)c3)c2cc1C(N)=O [lenvatinib]
activity in MYC-Tp53 allografts [2]: better activity

CNC(=O)c1cc(Oc2ccc(NC(=O)Nc3ccc(Cl)c(C(F)(F)F)c3)c(F)c2)ccn1 [regorafenib]
activity in MYC-Tp53 allografts [2]: better activity
